Legend:
[1] = system: human lung cancer strain NCI-H441; assay: cells; settings: NCI-H441, 96 h, read-out: NCI-H441 IC50 (nM), NCI-H441 cell proliferation, 4 days, CellTiter-Glo;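 also: cell proliferation inhibition after four days measured by CellTiter-Glo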
[2] = molecular target: GDP-bound HRAS wild-type protein (Homo sapiens, UniProt P01112); assay: Binding to HRAS by surface plasmon resonance (SPR), Single Cycle Kinetics; settings: ratio of KD for GDP-bound HRAS wild-type protein to KD for KRAS, SPR
GDP-bound HRAS wild-type protein, sequence (P01112 whole entry): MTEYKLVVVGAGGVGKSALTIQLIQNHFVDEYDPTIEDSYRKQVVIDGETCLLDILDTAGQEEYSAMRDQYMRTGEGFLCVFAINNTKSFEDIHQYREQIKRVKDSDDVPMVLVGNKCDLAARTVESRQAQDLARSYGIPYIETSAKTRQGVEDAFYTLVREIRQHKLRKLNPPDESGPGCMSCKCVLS

[3] = molecular target: GDP-bound KRAS wild-type protein (Homo sapiens, UniProt P01116); assay: Binding to KRAS by surface plasmon resonance (SPR), Single Cycle Kinetics; settings: SPR, Single Cycle Kinetics, GDP-bound KRAS wild-type protein; read-out: KRAS KD
GDP-bound KRAS wild-type protein, sequence (P01116 whole entry): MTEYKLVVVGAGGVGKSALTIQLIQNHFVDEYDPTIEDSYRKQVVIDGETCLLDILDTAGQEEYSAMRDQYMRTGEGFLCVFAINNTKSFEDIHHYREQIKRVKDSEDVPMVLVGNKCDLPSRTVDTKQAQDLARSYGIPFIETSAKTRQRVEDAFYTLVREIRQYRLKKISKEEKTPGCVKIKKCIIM

[4] = molecular target: GDP-bound NRAS wild-type protein (Homo sapiens, UniProt P01111); assay: Binding to NRAS by surface plasmon resonance (SPR), Single Cycle Kinetics; settings: ratio of KD for GDP-bound NRAS wild-type protein to KD for KRAS, SPR
GDP-bound NRAS wild-type protein, sequence (P01111 whole entry): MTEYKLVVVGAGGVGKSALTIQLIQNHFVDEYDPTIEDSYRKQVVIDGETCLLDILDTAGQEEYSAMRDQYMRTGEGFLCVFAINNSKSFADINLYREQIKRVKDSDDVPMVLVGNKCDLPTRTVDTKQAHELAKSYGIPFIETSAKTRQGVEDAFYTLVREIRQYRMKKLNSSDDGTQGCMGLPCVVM

SMILES	IC50 [1] [nM]	Kd [3] [nM]	HRAS/KRAS (KD ratio) [2]	NRAS/KRAS (KD ratio) [4]
CC[C@H](C)[C@@H]1NC(=O)[C@H](CC)N(C)C(=O)C[C@@H](C(=O)N(C)CC)N(C)C(=O)[C@H](C2CCCC2)N(C)C(=O)C2(CC(C)(C)C2)NC(=O)[C@@H]2C[C@@H](C)CN2C(=O)[C@H](CCc2ccc(C(F)(F)F)c(OC)c2)NC(=O)CN(C)C(=O)[C@H](Cc2ccc(C)cc2)N2CC/C=C\C[C@@H](C2=O)N(C)C(=O)CN(C)C1=O [PP1870]	12.4	0.19	A (a compound having 10 or more and less than 20 is denoted as A)	A (a compound having 10 or more and less than 20 is denoted as A)
CCO[C@@H]1C[C@H]2C(=O)NC3(CC(F)(F)C3)C(=O)N(C)[C@@H](C(CC)CC)C(=O)N3CCC[C@@H]3CC(=O)N(C)[C@@H](CC)C(=O)N[C@@H]([C@@H](C)CC)C(=O)N(C)CC(=O)N(C)[C@H]3C/C=C\CCN(C3=O)[C@@H](Cc3ccc(C(F)(F)F)cc3)C(=O)N(C)CC(=O)N[C@@H](CCc3cc(F)c(C(F)(F)F)c(F)c3)C(=O)N2C1 [PP1608]	70.1	0.67	A (a compound having 10 or more and less than 20 is denoted as A)	A (a compound having 10 or more and less than 20 is denoted as A)
CC[C@H](C)[C@@H]1NC(=O)[C@H](CC)N(C)C(=O)C[C@@H](C(=O)N(CC)CC)N(C)C(=O)[C@H](C2CCCC2)N(C)C(=O)C2(CC(C)(C)C2)NC(=O)[C@@H]2C[C@H](C)CN2C(=O)[C@H](CCc2ccc(C(F)(F)F)c(OC)c2)NC(=O)CN(C)C(=O)[C@H](Cc2ccc(C)cc2)N2CC/C=C\C[C@@H](C2=O)N(C)C(=O)CN(C)C1=O [PP1839]	24.3	0.31	B (a compound having 3 or more and less than 10 is denoted as B)	A (a compound having 10 or more and less than 20 is denoted as A)
CC[C@H](C)[C@@H]1NC(=O)[C@H](CC)N(C)C(=O)C[C@@H](C(=O)N(C)C)N(C)C(=O)[C@H](C2CCCC2)N(C)C(=O)C2(CC(C)(C)C2)NC(=O)[C@@H]2C[C@@H](C)CN2C(=O)[C@H](CCc2ccc(C(F)(F)F)c(OC)c2)NC(=O)CN(C)C(=O)[C@H](Cc2ccc(C)cc2)N2CC/C=C\C[C@@H](C2=O)N(C)C(=O)CN(C)C1=O [PP1838]	20	0.1	A (a compound having 10 or more and less than 20 is denoted as A)	A (a compound having 10 or more and less than 20 is denoted as A)

These reach a lower IC50 [1]. Values come first.

IC50 [1] [nM]	Kd [3] [nM]	SMILES	HRAS/KRAS (KD ratio) [2]	NRAS/KRAS (KD ratio) [4]
1.6	0.051	CCO[C@@H]1C[C@H]2C(=O)NC3(CC(F)(F)C3)C(=O)N(C)[C@@H](C3CCCC3)C(=O)N(C)[C@H](C(=O)N(C)C)CC(=O)N(C)[C@@H](CC3CCC3)C(=O)N[C@@H]([C@@H](C)CC)C(=O)N(C)CC(=O)N(C)[C@H]3C/C=C\CCN(C3=O)[C@@H](Cc3ccc(C(F)(F)F)cc3)C(=O)N(C)CC(=O)N[C@@H](CCc3cc(F)c(C(F)(F)F)c(F)c3)C(=O)N2C1 [PP1742]	A (a compound having 10 or more and less than 20 is denoted as A)	A (a compound having 10 or more and less than 20 is denoted as A)
6.2	0.15	CCO[C@@H]1C[C@H]2C(=O)NC3(CC(C)(C)C3)C(=O)N(C)[C@@H](C3CCCC3)C(=O)N(C)[C@H](C(=O)N(C)C)CC(=O)N(C)[C@@H](CC3CC3)C(=O)N[C@@H]([C@@H](C)CC)C(=O)N(C)CC(=O)N(C)[C@H]3C/C=C\CCN(C3=O)[C@@H](Cc3ccc(C(F)(F)F)cc3)C(=O)N(C)CC(=O)N[C@@H](CCc3cc(F)c(Cl)c(F)c3)C(=O)N2C1 [PP1759]	A (a compound having 10 or more and less than 20 is denoted as A)	A (a compound having 10 or more and less than 20 is denoted as A)

Source: patent publication US20240158446A1, “CYCLIC COMPOUND HAVING SELECTIVE INHIBITORY ACTION ON KRAS OVER HRAS AND NRAS” (CHUGAI SEIYAKU KABUSHIKI KAISHA, priority 2021, published 2024)
